Each compound was assayed against acetylcholinesterase from electric eel source (AChE, E.C. 3.1.1.7, Type V-S) (Electrophorus electricus, UniProt O42275) (assay: Ellman test, anti-acetylcholinesterase activity).
Assay type: biochemical

acetylcholinesterase from electric eel source (AChE, E.C. 3.1.1.7, Type V-S), sequence (O42275 24-633): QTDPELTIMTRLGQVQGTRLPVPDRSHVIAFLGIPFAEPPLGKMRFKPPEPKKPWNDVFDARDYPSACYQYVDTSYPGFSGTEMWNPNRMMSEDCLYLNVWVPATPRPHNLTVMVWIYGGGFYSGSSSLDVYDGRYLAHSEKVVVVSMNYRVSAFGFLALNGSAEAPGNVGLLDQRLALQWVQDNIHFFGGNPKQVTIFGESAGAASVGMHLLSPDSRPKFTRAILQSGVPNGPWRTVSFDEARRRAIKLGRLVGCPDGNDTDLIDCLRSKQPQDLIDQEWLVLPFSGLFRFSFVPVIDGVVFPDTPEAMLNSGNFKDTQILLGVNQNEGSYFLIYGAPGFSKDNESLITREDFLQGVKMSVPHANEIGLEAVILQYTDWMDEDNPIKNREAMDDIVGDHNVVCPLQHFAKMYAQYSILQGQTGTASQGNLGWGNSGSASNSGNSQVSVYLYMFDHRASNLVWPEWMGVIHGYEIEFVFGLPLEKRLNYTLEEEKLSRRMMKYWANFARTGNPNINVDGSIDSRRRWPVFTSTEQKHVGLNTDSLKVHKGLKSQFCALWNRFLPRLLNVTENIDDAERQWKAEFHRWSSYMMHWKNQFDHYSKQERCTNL

SMILES | IC50
COc1ccccc1C(=O)N1CCN(CCN2C(=O)c3ccccc3C2=O)CC1 [Compound 4g, 2-(2-(4-(2-Methoxybenzoyl)piperazin-1-yl)ethyl) isoindoline-1,3-dione] | 100 µM
COc1cccc(C(=O)N2CCN(CCN3C(=O)c4ccccc4C3=O)CC2)c1 [Compound 4h, 2-(2-(4-(3-Methoxybenzoyl)piperazin-1-yl)ethyl) isoindoline-1,3-dione] | 1.3 µM
O=C(c1ccc(Cl)cc1)N1CCN(CCN2C(=O)c3ccccc3C2=O)CC1 [Compound 4c, 2-(2-(4-(4-Chlorobenzoyl)piperazin-1-yl)ethyl) isoindoline-1,3-dione] | > 1000 µM
O=C(c1ccccc1[N+](=O)[O-])N1CCN(CCN2C(=O)c3ccccc3C2=O)CC1 [Compound 4j, 2-(2-(4-(2-Nitrobenzoyl)piperazin-1-yl)ethyl) isoindoline-1,3-dione] | 141 µM
O=C(c1ccccc1Cl)N1CCN(CCN2C(=O)c3ccccc3C2=O)CC1 [Compound 4a, 2-(2-(4-(2-Chlorobenzoyl)piperazin-1-yl)ethyl) isoindoline-1,3-dione] | 333 µM
O=C(c1cccc(F)c1)N1CCN(CCN2C(=O)c3ccccc3C2=O)CC1 [Compound 4e, 2-(2-(4-(3-Fluorobenzoyl)piperazin-1-yl)ethyl) isoindoline-1,3-dione] | 0.0071 µM
O=C(c1ccc(F)cc1)N1CCN(CCN2C(=O)c3ccccc3C2=O)CC1 [Compound 4f, 2-(2-(4-(4-Fluorobenzoyl)piperazin-1-yl)ethyl) isoindoline-1,3-dione] | 50.6 µM
O=C(c1cccc(Cl)c1)N1CCN(CCN2C(=O)c3ccccc3C2=O)CC1 [Compound 4b, 2-(2-(4-(3-Chlorobenzoyl)piperazin-1-yl)ethyl) isoindoline-1,3-dione] | 70.2 µM
COc1ccc(C(=O)N2CCN(CCN3C(=O)c4ccccc4C3=O)CC2)cc1 [Compound 4i, 2-(2-(4-(4-Methoxybenzoyl)piperazin-1-yl)ethyl) isoindoline-1,3-dione] | 0.0203 µM
O=C(c1ccccc1F)N1CCN(CCN2C(=O)c3ccccc3C2=O)CC1 [Compound 4d, 2-(2-(4-(2-Fluorobenzoyl)piperazin-1-yl)ethyl) isoindoline-1,3-dione] | 3.6 µM

From paper PMC5243976 (Iranian Journal of Basic Medical Sciences, 2017)
